Experimental data as given in patent publication US5136076A, “Process for the preparation of amino acid-derived enatiomeric compounds” (Societe Civile Bioprojet, priority 1987, dated 1992).

Legend:
enkephalinase [1] = molecular target: T1, enkephalinase (Mus musculus, UniProt Q61391); assay: Enkephalinase inhibition in vitro on striatum membranes (Table 1 (a)); assay type: biochemical
T1 construct: Activity measured on striatum membranes according to Llorens et al., J; from tissue; host or cells: striatum membranes
T1 sequence (Q61391 1-750): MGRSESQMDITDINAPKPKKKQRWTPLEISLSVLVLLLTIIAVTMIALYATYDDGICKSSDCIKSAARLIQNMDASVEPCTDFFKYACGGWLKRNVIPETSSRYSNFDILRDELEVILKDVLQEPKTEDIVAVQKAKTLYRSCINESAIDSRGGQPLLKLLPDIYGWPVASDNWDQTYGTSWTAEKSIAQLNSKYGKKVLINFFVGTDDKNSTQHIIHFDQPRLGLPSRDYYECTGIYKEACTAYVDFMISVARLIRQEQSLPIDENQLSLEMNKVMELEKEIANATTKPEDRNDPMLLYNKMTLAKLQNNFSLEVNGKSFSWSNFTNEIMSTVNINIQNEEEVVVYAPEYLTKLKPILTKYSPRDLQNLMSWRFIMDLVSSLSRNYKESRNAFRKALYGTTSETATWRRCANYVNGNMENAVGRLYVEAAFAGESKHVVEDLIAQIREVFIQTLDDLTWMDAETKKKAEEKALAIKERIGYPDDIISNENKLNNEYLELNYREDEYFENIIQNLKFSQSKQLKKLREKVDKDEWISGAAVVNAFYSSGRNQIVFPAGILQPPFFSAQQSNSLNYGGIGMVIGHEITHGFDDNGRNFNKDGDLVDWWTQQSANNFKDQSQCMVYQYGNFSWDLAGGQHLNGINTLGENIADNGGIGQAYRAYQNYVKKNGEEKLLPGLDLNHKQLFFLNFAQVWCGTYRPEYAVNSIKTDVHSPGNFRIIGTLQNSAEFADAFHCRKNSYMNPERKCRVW
From the text: (§1) Dosage of `enkephalinase` activity and angiotensin convertase (ACE) activity with determination of the effect of inhibitors both in vitro and on mouses in vivo: inhibition of the same enzymes and protection of natriuretic auricular factor.
(§2) ENKEPHALINASE AND ACE INHIBITING ACTIVITIES IN IN VITRO AND IN VIVO STRIATUM
(a)Activity measured on striatum membranes according to Llorens et al., J

enkephalinase [2] = assay: Enkephalinase inhibition in vivo in mouse striatum (Table 1 (b)); conditions: 30 mn after i.v. administration, 30 min
From the text: as §1, §2
(b)Activity measured in mouse striatum 30 mn after i.v. administration
according to LlorensCortes et al., Eur. J. Pharmacol., 1985, 119, 183.

[3] = molecular target: T2, ACE (angiotensin convertase) (Mus musculus, UniProt P09470); assay: ACE inhibition in vivo, mouse striatum (Table 1 (d))
T2 construct: Activities measured on mouse striatum membranes in vitro or 30; from tissue; host or cells: mouse striatum (membranes)
T2 sequence (P09470 35-1312): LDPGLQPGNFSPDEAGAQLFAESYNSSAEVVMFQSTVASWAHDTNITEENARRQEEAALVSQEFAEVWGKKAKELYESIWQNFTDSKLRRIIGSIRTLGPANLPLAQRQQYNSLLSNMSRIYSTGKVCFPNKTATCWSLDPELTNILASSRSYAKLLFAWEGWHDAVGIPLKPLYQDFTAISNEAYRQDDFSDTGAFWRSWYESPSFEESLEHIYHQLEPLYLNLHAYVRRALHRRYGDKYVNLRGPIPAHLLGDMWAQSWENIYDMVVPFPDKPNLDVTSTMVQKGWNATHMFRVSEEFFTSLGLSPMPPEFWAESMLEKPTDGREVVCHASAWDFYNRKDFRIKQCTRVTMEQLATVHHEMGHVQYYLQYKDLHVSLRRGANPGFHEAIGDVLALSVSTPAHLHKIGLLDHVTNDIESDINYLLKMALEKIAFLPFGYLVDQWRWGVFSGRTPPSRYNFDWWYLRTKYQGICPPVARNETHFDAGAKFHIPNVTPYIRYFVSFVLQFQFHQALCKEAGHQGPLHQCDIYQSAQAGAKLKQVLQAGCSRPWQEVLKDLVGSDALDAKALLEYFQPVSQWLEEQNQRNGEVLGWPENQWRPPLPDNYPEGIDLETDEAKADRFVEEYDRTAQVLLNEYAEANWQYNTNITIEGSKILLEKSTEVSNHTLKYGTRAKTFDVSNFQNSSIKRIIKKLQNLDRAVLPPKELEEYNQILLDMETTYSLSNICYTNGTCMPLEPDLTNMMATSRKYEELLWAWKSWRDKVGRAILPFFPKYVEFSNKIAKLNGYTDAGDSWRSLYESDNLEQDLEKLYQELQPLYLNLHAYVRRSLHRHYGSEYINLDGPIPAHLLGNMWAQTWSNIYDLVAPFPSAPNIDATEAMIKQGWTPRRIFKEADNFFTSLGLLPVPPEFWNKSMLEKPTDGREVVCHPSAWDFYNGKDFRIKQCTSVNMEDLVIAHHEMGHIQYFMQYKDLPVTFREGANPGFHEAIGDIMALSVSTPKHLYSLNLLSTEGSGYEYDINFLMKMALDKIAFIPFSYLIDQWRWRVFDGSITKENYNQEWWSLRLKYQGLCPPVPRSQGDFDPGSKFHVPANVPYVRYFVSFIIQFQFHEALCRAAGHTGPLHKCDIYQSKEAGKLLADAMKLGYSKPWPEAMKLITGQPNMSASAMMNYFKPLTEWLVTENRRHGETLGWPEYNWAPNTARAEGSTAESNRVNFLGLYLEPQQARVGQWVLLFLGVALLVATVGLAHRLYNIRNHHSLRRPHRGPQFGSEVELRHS
From the text: as §1, §2
(c) and (d)Activities measured on mouse striatum membranes in vitro or 30
mn after i.v. administration according to Yang and Neff, J. Neurochem, […]

mouses = assay: Subacute toxicity, 3 weeks oral; assay type: in vivo; conditions: 2 g/kg/day oral, mouse, as opposed to control
Protocol: Compound (1) was administered during 3 weeks to mouses at an oral dose of 2 g/kg/day.
Moreover, no signs of tolerance, habituation or other weaning phenomenon were observed on animals submitted to a reversibility test after treatment.

cats [4] = assay: Inhibition of stimulated gastric acid secretion; assay type: in vivo, cat; conditions: 0.5, 1.5 and 5 mg/kg i.v.; p<0.05
cats [5] = assay: Anti-inflammatory activity in experimental cholecystitis; assay type: in vivo, cat; conditions: 3 mg/kg i.v.
plasma enkephalinase = assay: Clinical pharmacology: plasma enkephalinase; assay type: in vivo, human; conditions: 30 mg oral, 1 hr after administration, vs placebo, p<0.001
Protocol: (§3) With healthy volunteers (9 male subjects) enkephalinase and natriuretic auricular factor (ANF) plasma levels as well as diuresis and natruresis are measured after oral administration of either a placebo, or (S) acetorphan.

plasma ANF = assay: Clinical pharmacology: plasma natriuretic auricular factor (ANF); assay type: in vivo, human; conditions: 30 mg oral, 1 hr after administration, vs placebo, p<0.05
Protocol: as §3

| Structure (SMILES) | IC50 (enkephalinase [1]) [nM] | Enkephalinase In vivo(b) (DE50, mg/kg) (enkephalinase [2]) [mg/kg] | ACE-inhibiting effect ([3]; mouse, in vivo) | ED50 ([3]; mouse, iv, 0.5 h, mouse striatum, 30 mn after i.v. administration, read-out: ACE In vivo(d) (DE50, mg/kg)) [mg/kg] | Organ weight and pathological examination (mouses) | stimulation of gastric acid secretion induced by Pentagastrin, 2-deoxyglucose and histamin (cats [4]) | hypersecretion induced by an inflammation of the gall bladder (cats [5]) | ACE In vivo(d) (DE50, mg/kg) ([3]; mouse striatum, 30 mn after i.v. administration, 30 min) [mg/kg] | inhibition of plasma enkephalinase (plasma enkephalinase) [%] | increase of plasma ANF (plasma ANF) [%] |
| --- | --- | --- | --- | --- | --- | --- | --- | --- | --- | --- |
| CC(=O)SCC(Cc1ccccc1)C(=O)NCC(=O)OCc1ccccc1 (single isomer, unassigned) [Compound (1)] | 2 | 0.8 | lack of ACE-inhibiting effect | > 20 | no difference as opposed to control | significatively decreased | significatively decreases hypersecretion |  |  |  |
| CC(=O)SCC(Cc1ccccc1)C(=O)NCC(=O)OCc1ccccc1 (single isomer, unassigned) [Compound (2)] | 3 | 0.4 |  |  |  | significatively decreased |  | 10 | 62 | 50 |
